# Experimental data from US20230201190A1, “USE OF MULTI[…] FOR TREATING THE RESPIRATORY DISTRESS AND CYTOKINE STORM SYNDROMES ASSOCIATED WITH C[…] INFECTIONS” (H4 ORPHAN PHARMA, priority 2020, published 2023).
# Legend:
# [1] = noted by the HAS; cited from earlier work
# [2] = system: TGF-β activation; settings: alveolar macrophages from healthy volunteers, dose and exposure dependent; cited from earlier work
# [3] = system: BL6 mice sensitised to OVA receiving double-stranded RNA (Poly U/Poly A); assay: Whole body plethysmography (PenH) in OVA-sensitised mice given double-stranded RNA poly(A:U); format: in vivo, mouse
# Protocol: The inventors used a C57/B16J mouse model, hereafter referred to as BL6.
# The protocol simulating a double-stranded RNA viral infection has been performed with 2 groups of 15 mice; these are 8 week old female mice. A control group treated only with saline served as a negative control.
# BL6 mice are treated according to the protocol below. BL6 mice have been sensitised by intraperitoneal injections of […] OVA (ovalbumin) on days 0, 2 and 4. Thereafter, from day 10 to day 15, the mice have received a daily treatment with aerosolized OVA at the concentration of 20 mg/ml or saline for 20 min, using an ultrasound nebulizer (Ultra-Neb99). One hour later, the mice received […] of poly (A:U) or saline intranasally.
# Group 3 which is sensitised to OVA and also receives double stranded RNA (Poly U/Poly A) according to the protocol described above but also tritoqualine at 10 mg/kg.
# Each group is analysed by whole body plethysmography and the measurements are expressed in PenH. A measurement is performed every minute until 10 minutes after the introduction of the double-stranded RNA. Tritoqualine treatment is given 1 hour before the introduction of Poly U/Poly A (double-stranded RNA).
# In group 3, which is the group treated with tritoqualine at a dose of 10 mg/kg (mice with viral infection after sensitisation to ovalbumin as well) there are have the following results at time 1 minute to 10 minutes, expressed in PenH units and averaged over 15 mice: […]
# [4] = system: CD63 expression on basophils; assay: Flow CAST basophil activation test, anti-FcεRI antibody stimulation, CD63/CCR3 flow cytometry on whole blood; format: cell-based, human
# From the text: To study this modulating action of CD63 by tritoqualine, the inventors have used the basophil and a modified commercial test, the Flow CAST® kit from BULHMANN Laboratories AG (Switzerland), which is a Basophil Activation Test (BAT) that can be used for the in vitro detection of basophil degranulation as well as for the study of immediate type allergic reactions and hypersensitivities.
# The test is designed for the in vitro diagnosis of CD63 expression as a surface marker of activated basophils. The test is performed on whole blood; flow cytometry is used to quantify CD63 expression on the surface of activated basophils.
# To evaluate degranulation via CD63 expression, the Flow CAST® kit has been partially used. This test includes an anti-IgE receptor. The inventors have only used the latter activator.
# These different couplings make it possible to characterise cells separately and in particular basophils. 4 windowing zones will be distinguished according to whether or not CD63 labelling is observed and whether or not CCR3 labelling is observed • CD63+ and CCR3− which characterise non-basophilic degranulated cells. • CD63+ and CCR3+ which characterise degranulated basophils. • CD63− and CCR3− which characterise non-degranulated non-basophilic cells. • CD63− and CCR3+ which characterise non-degranulated basophils.
# The degranulation protocol has been carried out using the Flow CAST. […]
# [5] = Light sensitivity of the powder; format: physicochemical; settings: white powder; degrades to Cotarnine and phthalic acid
# [6] = biological target: T1, histidine decarboxylase (Homo sapiens, UniProt P19113); settings: cited from earlier work
# T1 sequence (P19113 1-662): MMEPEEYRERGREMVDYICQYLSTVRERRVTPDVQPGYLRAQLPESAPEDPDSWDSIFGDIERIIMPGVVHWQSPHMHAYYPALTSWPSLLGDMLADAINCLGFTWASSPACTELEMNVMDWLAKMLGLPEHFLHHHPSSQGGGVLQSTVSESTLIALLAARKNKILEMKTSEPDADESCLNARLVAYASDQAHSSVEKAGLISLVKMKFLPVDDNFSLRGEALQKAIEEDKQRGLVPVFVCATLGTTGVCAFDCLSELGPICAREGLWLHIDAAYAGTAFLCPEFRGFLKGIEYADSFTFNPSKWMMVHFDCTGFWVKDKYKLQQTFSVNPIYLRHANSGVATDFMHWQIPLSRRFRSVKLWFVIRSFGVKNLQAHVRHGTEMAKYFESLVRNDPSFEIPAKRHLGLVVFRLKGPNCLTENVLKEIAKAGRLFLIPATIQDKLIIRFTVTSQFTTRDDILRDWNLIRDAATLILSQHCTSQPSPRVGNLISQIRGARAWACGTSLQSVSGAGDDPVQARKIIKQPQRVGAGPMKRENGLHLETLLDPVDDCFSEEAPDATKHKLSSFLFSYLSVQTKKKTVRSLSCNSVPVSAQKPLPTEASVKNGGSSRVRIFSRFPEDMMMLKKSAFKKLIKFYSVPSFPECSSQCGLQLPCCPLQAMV
smiles,measurement,setting,value
"COC(=O)c1ccc2c(c1)NC(=O)/C2=C(\Nc1ccc(N(C)C(=O)CN2CCN(C)CC2)cc1)c1ccccc1 [OFEV, Nintedanib]",side effects,[1],~92%
COCCN(CCCCc1ccc2c(n1)NCCC2)CC[C@H](Nc1ncnc2ccccc12)C(=O)O [PLN-74809],inhibition of TGF-β activation,[2],up to 70%
"CCOc1c(N)c2c(c(OCC)c1OCC)C(C1c3c(cc4c(c3OC)OCO4)CCN1C)OC2=O (centres unmarked) [tritoqualine, 7-amino-4,5,6-triethoxy-3-(5,6,7,8-tetrahydro-4-methoxy-6-methyl-1,3-dioxolo[4,5-g]isoquinolin-5-yl)phthalide]",difference in airway resistance between tritoqualine group and untreated group (statistical analysis),"[3]; 10 mg/kg, p<0.001",highly significant
same,"airway resistance, mean of 15 mice","[3]; T1 (1 minute after double-stranded RNA), tritoqualine 10 mg/kg given 1 hour before",3.05 PenH
same,"airway resistance, mean of 15 mice","[3]; T2 (2 minutes), tritoqualine 10 mg/kg",3.11 PenH
same,"airway resistance, mean of 15 mice","[3]; T3 (3 minutes), tritoqualine 10 mg/kg",3.13 PenH
same,"airway resistance, mean of 15 mice","[3]; T4 (4 minutes), tritoqualine 10 mg/kg",3.97 PenH
same,"airway resistance, mean of 15 mice","[3]; T5 (5 minutes), tritoqualine 10 mg/kg",4.07 PenH
same,"airway resistance, mean of 15 mice","[3]; T6 (6 minutes), tritoqualine 10 mg/kg",4.14 PenH
same,"airway resistance, mean of 15 mice","[3]; T7 (7 minutes), tritoqualine 10 mg/kg",4.02 PenH
same,"airway resistance, mean of 15 mice","[3]; T8 (8 minutes), tritoqualine 10 mg/kg",3.85 PenH
same,"airway resistance, mean of 15 mice","[3]; T9 (9 minutes), tritoqualine 10 mg/kg",3.14 PenH
same,"airway resistance, mean of 15 mice","[3]; T10 (10 minutes), tritoqualine 10 mg/kg",2.74 PenH
same,cells still expressing CD63,[4]; tritoqualine 5 μmol,approximately 40%
same,cells still expressing CD63,[4]; tritoqualine 10 μmol,less than 2%
same,sensitivity to light,[5],very sensitive to light
same,inhibitory action on histidine decarboxylase,[6],very weak
